The values below come from the NIST ThermoML archive (doi:10.1016/j.fluid.2010.08.022).

The nature of the data set: refractive index (Na D-line) (dimensionless). Particulars: 101.33 kPa, Standard Abbe refractometry.

SMILES strings stand for the structures. ± gives the expanded uncertainty stated by the source.

One may read the refractive index as a measure of how strongly the sample bends light. For the compound `CCCCCCCC/C=C\CCCCCCCC(=O)O.NCCO` [2-hydroxyethylammonium oleate], the refractive index (278.45 K, Crystal) was determined as 1.496 ± 0.00069; the refractive index (288.35 K, Liquid crystal of unknown type) came out at 1.49406 ± 0.00068; the refractive index (298.15 K, Liquid crystal of unknown type) was 1.48994 ± 0.00068; the refractive index (308.25 K, Liquid crystal of unknown type) is given as 1.48558 ± 0.00068; the refractive index (313.21 K, Liquid crystal of unknown type) came out at 1.48343 ± 0.00068; the refractive index (323.45 K, Liquid crystal of unknown type) stood at 1.47901 ± 0.00068. Under “333.25 K, Liquid crystal of unknown type”, the refractive index worked out at 1.4747 ± 0.00068.
`CCCCCCCC/C=C\CCCCCCCC(=O)[O-].OCC[NH2+]CCO` [bis(2-hydroxyethyl)ammonium oleate]: the refractive index reads like this: (278.35 K, Liquid crystal of unknown type) 1.4956 ± 0.00068; (288.25 K, Liquid crystal of unknown type) 1.49226 ± 0.00068; (298.05 K, Liquid crystal of unknown type) 1.48855 ± 0.00068; (308.22 K, Liquid crystal of unknown type) 1.48463 ± 0.00068; (318.23 K, Liquid crystal of unknown type) 1.48023 ± 0.00068; (328.05 K, Liquid crystal of unknown type) 1.47673 ± 0.00068. For the same compound, the refractive index (338.05 K, Liquid crystal of unknown type) is 1.47267 ± 0.00068; the refractive index (341.15 K, Liquid crystal of unknown type) was 1.47055 ± 0.00075; the refractive index (343.25 K, Liquid crystal of unknown type) is listed as 1.46364 ± 0.00094.
